Test results published in paper PMC4724290 (Synapse (New York, N.Y.), 2015).
Values joined by “and” are separate entries in the source; they are usually repeats but may differ in a detail not shown here. Identical values can stand only once. “Also recorded” adds a separate entry of the source. Counter-ions that a name gives are not always drawn. Like-named read-outs stand apart in the source and are kept apart here.

Key:
[1] = biological target: T1, σ2 receptors (Mus musculus, UniProt Q8VD00); experiment: In vitro σ2 receptor binding, [^3H]DTG/; parameters: species or system CD-1 mouse
T1 sequence (Q8VD00 1-176): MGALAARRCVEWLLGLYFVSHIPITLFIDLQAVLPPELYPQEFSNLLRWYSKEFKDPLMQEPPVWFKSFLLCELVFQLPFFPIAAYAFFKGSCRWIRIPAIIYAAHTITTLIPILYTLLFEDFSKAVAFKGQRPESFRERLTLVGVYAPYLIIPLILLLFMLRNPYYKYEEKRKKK

[2] = biological target: T2, σ1 receptors (Mus musculus, UniProt O55242); experiment: In vitro σ1 receptor binding, [^3H]; parameters: species or system CD-1 mouse; conditions: for Selectivity Ki Ratio σ2/σ1: CD-1 mouse whole brain membranes
[3] = biological target: T2, σ1 receptors; conditions: read-out: Kd for σ1 sites in mouse brain membranes; ref Lever et al., 2012; cited from earlier work
[4] = biological target: striatal dopamine transporters (DAT) (Mus musculus, UniProt Q61327); experiment: In vivo DAT occupancy: inhibition of [^125I]RTI-121 specific binding in striatum; parameters: species or system CD-1 mice; conditions: for Inhibition of striatal [^125I]RTI-121 specific binding: 10.0 μmol/kg i.p.
[5] = biological target: T2, σ1 receptors; conditions: ref Lever et al., cited from earlier work
[6] = biological target: DAT; conditions: cited from earlier work
[7] = tested on: Swiss Webster mice; conditions: doses as low as 0.1 mg/kg (0.29 μmol/kg); ref Matsumoto et al., 2001a; cited from earlier work
[8] = tested on: CD-1 mice; experiment: Locomotor activity: basal and; type: in vivo; conditions: for Effect on basal locomotor activity: i.p., E-IA-DM-PE-PIPZE up to 3.16 μmol/kg, BD1063 3.16 and 31.6 μmol/kg, 60 min
[9] = biological target: T2, σ1 receptors; type: in vivo, CD-1 mice; conditions: for Occupancy of cerebral σ1 receptors: in the absence of (−)-cocaine
[10] = ref Lever et al., 2012, 2014a, 2015; cited from earlier work
[11] = biological target: T2, σ1 receptors; type: in vivo, CD-1 mice; conditions: saline control, 60 min
[12] = tested on: mice; conditions: cited from earlier work
[13] = ref Fowler et al., 2007; cited from earlier work
[14] = tested on: striatal DAT; conditions: Swiss Webster strain; ref Desai and colleagues (2005); cited from earlier work
[15] = biological target: σ1 receptors; conditions: read-out: σ1 Ki, ref Lever et al., cited from earlier work
[16] = biological target: σ2 receptors; conditions: read-out: Ki for σ2 receptors; ref Kovács and Larson (1995); cited from earlier work
[17] = 3.0 nM [^3H]DTG/500 nM (+)pentazocine, 25 °C, 60 min
[18] = read-out: Sigma2 IC50, 3.0 nM [^3H]DTG/500 nM (+)pentazocine, 25 °C, 60 min
[19] = 3.0 nM [^3H](+)pentazocine, 37 °C, 180 min
[20] = read-out: Sigma1 IC50, 3.0 nM [^3H](+)pentazocine, 37 °C, 180 min
[21] = ligand i.p. 1 min prior to radioligand, 30 min, unconstrained fit
[22] = 2.5 μCi i.v., 60 min, non-specific defined by BD1063
[23] = homologous saturation, 25 °C, 60 min, two-site model

T2 sequence (O55242 whole entry): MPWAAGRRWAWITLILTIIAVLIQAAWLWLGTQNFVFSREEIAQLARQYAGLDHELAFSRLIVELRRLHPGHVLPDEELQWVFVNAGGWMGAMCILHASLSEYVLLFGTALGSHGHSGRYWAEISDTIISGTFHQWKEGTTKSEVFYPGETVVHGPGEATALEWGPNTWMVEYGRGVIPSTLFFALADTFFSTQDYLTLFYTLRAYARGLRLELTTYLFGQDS
Chain of striatal dopamine transporters (DAT) (Q61327 whole entry): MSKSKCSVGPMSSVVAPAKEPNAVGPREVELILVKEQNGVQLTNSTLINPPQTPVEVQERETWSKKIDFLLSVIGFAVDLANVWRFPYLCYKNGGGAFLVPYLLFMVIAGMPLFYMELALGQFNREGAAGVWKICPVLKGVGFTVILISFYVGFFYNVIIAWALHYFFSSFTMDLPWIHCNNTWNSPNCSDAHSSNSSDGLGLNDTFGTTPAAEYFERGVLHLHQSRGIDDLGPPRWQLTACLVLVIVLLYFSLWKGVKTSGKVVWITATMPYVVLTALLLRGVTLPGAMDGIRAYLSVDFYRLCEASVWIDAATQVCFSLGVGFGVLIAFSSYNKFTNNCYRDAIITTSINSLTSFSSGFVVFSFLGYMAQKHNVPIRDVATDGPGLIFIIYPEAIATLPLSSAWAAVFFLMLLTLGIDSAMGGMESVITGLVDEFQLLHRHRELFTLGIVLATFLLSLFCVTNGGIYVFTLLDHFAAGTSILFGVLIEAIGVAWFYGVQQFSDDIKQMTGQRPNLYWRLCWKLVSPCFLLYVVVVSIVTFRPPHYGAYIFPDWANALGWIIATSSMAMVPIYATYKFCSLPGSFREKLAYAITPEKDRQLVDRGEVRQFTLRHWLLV

C=CCN1CCC2(C)c3cc(O)ccc3CC1C2C (single isomer, unassigned; (+)) [(+)-NANM, (+)-N-allylnormetazocine]
Sigma2 nH [1, 17]: 0.98 ± 0.12 | IC50 [1, 18]: 8990 ± 850 nM | Sigma1 nH [2, 19]: 1.06 ± 0.11 | Selectivity Ki Ratio σ2/σ1 [2]: 608 | IC50 [2, 20]: 20.6 ± 1.14 nM | Ki ([2]; read-out: Sigma1 Ki): 13.3 ± 0.74 nM

CC(C(O)c1ccc(O)cc1)N1CCC(Cc2ccccc2)CC1 (stereo not drawn) [Ifenprodil, ifenprodil (+)-tartrate]
IC50 [1]: 2.69 ± 0.36 nM | Ki [1]: 2.43 ± 0.32 nM | Sigma2 nH [1, 17]: 0.70 ± 0.07 | IC50 [2]: 35 ± 0.95 nM | Ki [2]: 22.7 ± 0.61 nM | Sigma1 nH [2, 19]: 1.08 ± 0.06 | Selectivity Ki Ratio σ2/σ1 [2]: 0.1

COc1ccc(CCN2CCN(C/C=C/I)CC2)cc1OC [[^125I]E-IA-DM-PE-PIPZE, [^125I]E-N-1-(3′-iodoallyl)-N′-4-(3″,4″-dimethoxyphenethyl)-piperazine]
Kd [3]: 3.79 nM

CN1CCN(CCc2ccc(Cl)c(Cl)c2)CC1 [BD1063, 1-[2-(3,4-dichlorophenyl)ethyl]-4-methylpiperazine]
Inhibition of striatal [^125I]RTI-121 specific binding [4]: did not inhibit | IC50 [1]: 843 ± 104 nM | Ki [1]: 762 ± 94 nM | Sigma2 nH [1, 17]: 0.96 ± 0.13 | Occupancy of cerebral σ1 receptors ([5]; doses ≥ 3.16 μmol/kg, in the absence of (−)-cocaine, 2014b): ≥ 89% | ED50 for σ1 occupancy, brain ([5]; same protocol, 2014b): 0.62 µmol/kg | ED50 for σ1 occupancy, heart ([5]; same protocol, 2014b): 0.14 µmol/kg | ED50 for σ1 occupancy, lung ([5]; same protocol, 2014b): 0.20 µmol/kg | ED50 for σ1 occupancy, spleen ([5]; same protocol, 2014b): 1.47 µmol/kg | Ki ([6]; read-out: Ki for the DAT (apparent affinity), ref Garcés-Ramírez et al., 2011): 8000 nM | Affinity for σ1 receptors relative to (−)-cocaine (higher) [2]: ~200 fold | Affinity for σ1 receptors relative to PD144418 (lower) [2]: 30 fold | IC50 [2]: 9.68 ± 1 nM | Ki [2]: 5.98 ± 0.62 nM | Sigma1 nH [2, 19]: 1.17 ± 0.08 | Selectivity Ki Ratio σ2/σ1 [2]: 127 | Protection from (−)-cocaine-induced convulsions [7]: protect | Increase of (−)-cocaine-induced hyperactivity ([8]; 3.16 μmol/kg i.p., not statistically significant): 17% | Decrease of (−)-cocaine-induced hyperactivity ([8]; 31.6 μmol/kg i.p., not statistically significant): 19% | Effect on basal locomotor activity [8]: did not significantly affect basal activity

COc1ccc(CCN2CCN(C/C=C/I)CC2)cc1OC [E-IA-DM-PE-PIPZE, E-N-1-(3′-iodoallyl)-N′-4-(3″,4″-dimethoxyphenethyl)-piperazine]
Occupancy of cerebral σ1 receptors ([9]; 0.316 μmol/kg i.p.): 58% | Occupancy of cerebral σ1 receptors ([9]; 3.16 μmol/kg i.p.): 86% | ED50 for σ1 occupancy, brain [9, 21]: 0.23 µmol/kg | ED50 for σ1 occupancy, heart [9, 21]: 0.03 µmol/kg | ED50 for σ1 occupancy, lung [9, 21]: 0.08 µmol/kg | ED50 for σ1 occupancy, spleen [9, 21]: 0.35 µmol/kg | Inhibition of striatal [^125I]RTI-121 specific binding [4]: did not affect radioligand binding; also recorded: No inhibition | Sigma2 nH [1, 17]: 0.98 ± 0.08 | IC50 [1, 18]: 1600 ± 243 nM | Ki ([6]; read-out: Ki for the DAT in vitro, ref Lever et al., 2012): > 10000 nM | Sigma1 nH [2, 19]: 0.98 ± 0.07 | Selectivity Ki Ratio σ2/σ1 [2]: 215 | IC50 [2, 20]: 10.4 ± 1.39 nM | Ki ([2]; read-out: Sigma1 Ki): 6.73 ± 0.9 nM | Effect on basal locomotor activity [8]: do not significantly; also recorded: not affected

CC(C)=CCN1CC[C@]2(C)c3cc(O)ccc3C[C@H]1[C@H]2C [(+)-Pentazocine, (+)-pentazocine]
Sigma1 nH [2, 19]: 1.09 ± 0.03

COc1ccc(CCN2CCN(C/C=C/[125I])CC2)cc1OC [[^125I]E-IA-DM-PE-PIPZE, [^125I]E-N-1-(3′-iodoallyl)-N′-4-(3″,4″-dimethoxyphenethyl)-piperazine]
Control specific binding to σ1 receptors, brain [9, 22]: 83% | Control specific binding to σ1 receptors, heart [9, 22]: 53% | Control specific binding to σ1 receptors, lung [9, 22]: 66% | Control specific binding to σ1 receptors, spleen [9, 22]: 71% | Selectivity for binding to σ1 over σ2 receptors ([2]; from Table II): 200 fold | Metabolic stability [10]: excellent metabolic stability | Specific Binding [^125I]E-IA-DM-PE-PIPZE, Control ([11]; Caudate-putamen): 1.96 ± 0.07 fmol/mg tissue | Specific Binding [^125I]E-IA-DM-PE-PIPZE, Control ([11]; Cortex, Cingulate): 2.69 ± 0.20 fmol/mg tissue | Specific Binding [^125I]E-IA-DM-PE-PIPZE, Control ([11]; Cortex, Entorhinal): 2.52 ± 0.09 fmol/mg tissue | Specific Binding [^125I]E-IA-DM-PE-PIPZE, Control ([11]; Cortex, Frontal): 2.99 ± 0.19 fmol/mg tissue | Specific Binding [^125I]E-IA-DM-PE-PIPZE, Control ([11]; Cortex, Parietal): 3.12 ± 0.14 fmol/mg tissue | Specific Binding [^125I]E-IA-DM-PE-PIPZE, Control ([11]; Cortex, Temporal): 2.93 ± 0.16 fmol/mg tissue | Specific Binding [^125I]E-IA-DM-PE-PIPZE, Control ([11]; Diencephalon, Thalamic nuclei): 2.94 ± 0.10 fmol/mg tissue | Specific Binding [^125I]E-IA-DM-PE-PIPZE, Control ([11]; Diencephalon, Thalamus): 2.57 ± 0.13 fmol/mg tissue | Specific Binding [^125I]E-IA-DM-PE-PIPZE, Control ([11]; Hippocampus, CA1 pyramidal): 2.25 ± 0.12 fmol/mg tissue | Specific Binding [^125I]E-IA-DM-PE-PIPZE, Control ([11]; Hippocampus, CA2 pyramidal): 2.87 ± 0.13 fmol/mg tissue | Specific Binding [^125I]E-IA-DM-PE-PIPZE, Control ([11]; Hippocampus, CA3 pyramidal): 3.34 ± 0.10 fmol/mg tissue | Specific Binding [^125I]E-IA-DM-PE-PIPZE, Control ([11]; Hippocampus, Dentate Gyrus): 3.27 ± 0.08 fmol/mg tissue | Specific Binding [^125I]E-IA-DM-PE-PIPZE, Control ([11]; Hippocampus, Nonpyramidal): 1.84 ± 0.08 fmol/mg tissue | Specific Binding [^125I]E-IA-DM-PE-PIPZE, Control ([11]; Mesencephalon, Inferior Colliculi): 3.50 ± 0.20 fmol/mg tissue | Specific Binding [^125I]E-IA-DM-PE-PIPZE, Control ([11]; Mesencephalon, Periaqueductal Gray): 4.07 ± 0.13 fmol/mg tissue | Specific Binding [^125I]E-IA-DM-PE-PIPZE, Control ([11]; Mesencephalon, Superior Colliculi): 3.50 ± 0.14 fmol/mg tissue | Specific Binding [^125I]E-IA-DM-PE-PIPZE, Control ([11]; Metencephalon, Cerebellum (whole)): 3.18 ± 0.08 fmol/mg tissue | Specific Binding [^125I]E-IA-DM-PE-PIPZE, Control ([11]; Metencephalon, Granular layer): 4.13 ± 0.20 fmol/mg tissue | Specific Binding [^125I]E-IA-DM-PE-PIPZE, Control ([11]; Metencephalon, Molecular layer): 2.38 ± 0.08 fmol/mg tissue | Specific Binding [^125I]E-IA-DM-PE-PIPZE, Control ([11]; White Matter, Corpus callosum): 1.99 ± 0.06 fmol/mg tissue

(−)-Cocaine hydrochloride
ED50 for maximum stimulatory effects on locomotor activity ([12]; CD-1 mice, 3 h period, ref Thomsen and Caine (2011)): 18.2 mg/kg | ED50 for maximum stimulatory effects on locomotor activity ([12]; CD-1 mice, first hour, ref Carroll et al. (2004)): 10 mg/kg | ED50 for maximum stimulatory effects on locomotor activity ([12]; Swiss Webster mice, 3 h period, ref Thomsen and Caine (2011)): 9.7 mg/kg | Log D7.4 [13]: 1.31 | ED50 for displacement of striatal binding [14]: 38 µmol/kg

COc1ccc2c(c1)[C@]13CCCC[C@@H]1[C@H](C2)N(C)CC3 [Dextromethorphan, dextromethorphan hydrobromide]
Ki [15]; 2015: 63 nM | IC50 [1]: 30000 ± 2820 nM | Ki [1]: 26800 ± 2530 nM | IC50 [2]: 97.5 ± 6.9 nM | Ki [2]: 63.1 ± 4.5 nM | Sigma1 nH [2, 19]: 0.88 ± 0.07 | Ki [16]: 1740 nM

Cc1ccccc1NC(=N)Nc1ccccc1C [DTG, 1,3-di(2-tolyl)guanidine]
Sigma2 nH [1, 17]: 0.88 ± 0.05 | IC50 [2]: 173 ± 19.9 nM | Ki [2]: 112 ± 12.9 nM | Sigma1 nH [2, 19]: 0.91 ± 0.14

C=CCN1CCC2(C)c3cc(O)ccc3CC1C2C (single isomer, unassigned; (-)) [(−)-NANM, (−)-N-allylnormetazocine]
Sigma2 nH [1, 17]: 0.93 ± 0.08 | IC50 [1, 18]: 7460 ± 469 nM | Sigma1 nH [2, 19]: 1.09 ± 0.08 | Selectivity Ki Ratio σ2/σ1 [2]: 2.6 | IC50 [2, 20]: 3980 ± 600 nM | Ki ([2]; read-out: Sigma1 Ki): 2550 ± 383 nM

Cc1ccccc1NC(=N)Nc1ccccc1C [[^3H]DTG]
Bmax, high affinity, low capacity site (σ2 receptor) [1, 23]: 711 ± 81 fmol/mg protein | Bmax, low affinity, high capacity site [1, 23]: 21307 ± 7059 fmol/mg protein

Fc1ccc(C(OCCN2CCN(CCCc3ccccc3)CC2)c2ccc(F)cc2)cc1 [GBR12909, 1-{2-[bis-(4-fluorophenyl)methoxy]ethyl}-4-(3-phenylpropyl)piperazine]
inhibition at 10 µmol/kg ([4]; mouse, iv, read-out: Inhibition of specific [^125I]RTI-121 binding): 75%

CC(C)=CCN1CC[C@]2(C)c3cc(O)ccc3C[C@H]1[C@H]2C [[^3H](+)-Pentazocine]
Maximal site density (Bmax), σ1 receptors ([2]; saturation binding, 37 °C, 180 min): 538 ± 30 fmol/mg protein and 538 fmol/mg protein

CCCN1CCC=C(c2cc(-c3ccc(C)cc3)no2)C1 [PD144418]
Ki ([15]; 2014a): 0.19 nM | σ1 receptor occupancy threshold for significant behavioral effects ([5]; 2014a): 80%
